Data as given in patent publication US20110152090A1, “HERBICIDAL COMPOSITIONS COMPRISING FLUFENACET” (Bayer CropScience AG, priority 2009, published 2011).

Experiments:
Type in all cases: in vivo
[1] = tested on: STEME (Stellaria media), sensitive and resistant; assay: Greenhouse trial: resistant biotypes, PE application (test method 9); details: g of AS/ha: (A) 90, (B) 1200, (C) 90, iodosulfuron 10; for activity STEME resistant (visual scale 0-100%): resistant biotype; for activity STEME sensitive (visual scale 0-100%): sensitive biotype
Experimental: (§1) In the standard design of the test, seeds of various broad-leaved weed and weed grass biotypes (origins) were sown in a 8-13 cm diameter pot filled with natural soil of a standard field soil (loamy silt; non-sterile) and covered with a covering soil layer of about 1 cm. The pots were then cultivated in a greenhouse (12-16 h of light, temperature day 20-22° C., night 15-18° C.) until the time of application. The pots were treated on a laboratory track sprayer with spray liquors comprising the compositions according to the invention, mixtures of the prior art or components used individually. Application of the active compounds or active compound combinations formulated as WG, WP, EC or otherwise was carried out at the appropriate growth stages of the plants. The application rate for the spray application was 100-600 l of water/ha. After the treatment, the plants were returned to the greenhouses.
(§2) About 3 weeks after the application, the soil action or/and foliar action was assessed visually according to a scale of 0-100% in comparison to an untreated comparative group: 0%=no noticeable effect compared to the untreated comparative group; 100%=full effect compared to the untreated comparative group.
(§3) (notes: the term “seeds” also includes vegetative propagation forms such as, for example, rhizome pieces; abbreviations used: h light=hours of illumination, g of AS/ha=gram of active substance per hectare, l/ha=liter per hectare, S=sensitive, R=resistant) • 1. Pre-emergence action against weeds: seeds of various broad-leaved weed and weed grass biotypes (origins) were sown in a 8-13 cm diameter pot filled with natural soil of a standard field soil (loamy silt; non-sterile) and covered with a covering soil layer of about 1 cm. The pots were then cultivated in a greenhouse (12-16 h of light, temperature day 20-22° C., night 15-18° C.) until the time of application. The pots were treated at the BBCH stage 00-10 of the seeds/plants on a laboratory track sprayer with spray liquors comprising the compositions according to the invention, mixtures or components used individually, as WG, WP, EC or other formulations. The application rate for the spray application was 100-600 l of water/ha. After the treatment, the plants were returned to the greenhouses and, when required, treated with fertilizer and watered. • 2. Post-emergence action against weeds: seeds of various broad-leaved weed and weed grass biotypes (origins) were sown in a 8-13 cm diameter pot filled with natural soil of a standard field soil (loamy silt; non-sterile) and covered with a covering soil layer of about 1 cm. The pots were then cultivated in a greenhouse (12-16 h of light, temperature day 20-22° C., night 15-18° C.) until the time of application. The pots were treated at various BBCH stages between 11-25 of the seeds/plants, i.e. generally between two to three weeks after the start of the cultivation, on a laboratory track sprayer with spray liquors comprising the compositions according to the invention, mixtures or components used individually, as WG, WP, EC or other formulations. The application rate for the spray application was 100-600 l of water/ha. After the treatment, the plants were returned to the greenhouses and, when required, treated with fertilizer and watered. • 3. Pre-emergence action against weeds with and without incorporation of active compound: seeds of various broad-leaved weed and weed grass biotypes (origins) were sown in a 8-13 cm diameter pot filled with natural soil of a standard field soil (loamy silt; non-sterile). […]

[2] = tested on: LOLSS (Lolium species), sensitive and resistant; assay: as above; details: g of AS/ha: (A) 90, (B) 1200, (C) 90, iodosulfuron 10; for activity LOLSS resistant (visual scale 0-100%): resistant biotype; for activity LOLSS sensitive (visual scale 0-100%): sensitive biotype
Experimental: as §1, §2, §3

[3] = tested on: MATCH (Matricaria chamomilla), sensitive and resistant; assay: as above; details: g of AS/ha: (A) 90, (B) 1200, (C) 90, iodosulfuron 10; for activity MATCH resistant (visual scale 0-100%): resistant biotype; for activity MATCH sensitive (visual scale 0-100%): sensitive biotype
Experimental: as §1, §2, §3

AVEFA (Avena fatua) [4] = assay: Greenhouse trial: pre-sowing application vs PE application (test method 6)
Experimental: as §1, §2, §3

LOLPE (Lolium perenne) [5] = assay: as above
Experimental: as §1, §2, §3

[6] = tested on: HORVS (Hordeum vulgare, summer barley); assay: Greenhouse trial: different soil types (test method 8), crop; details: Hordeum vulgare (summer barley), in vivo
Experimental: as §1, §2, §3

[7] = tested on: HORVS (Hordeum vulgare, summer barley); assay: Greenhouse trial: selective PO action (test method 5); details: Hordeum vulgare (summer barley), in vivo, po
Experimental: as §1, §2
(§4) (notes: the term “seeds” also includes vegetative propagation forms such as, for example, rhizome pieces; abbreviations used: h light=hours of illumination, g of AS/ha=gram of active substance per hectare, l/ha=liter per hectare, S=sensitive, R=resistant) • 1. Pre-emergence action against weeds: seeds of various broad-leaved weed and weed grass biotypes (origins) were sown in a 8-13 cm diameter pot filled with natural soil of a standard field soil (loamy silt; non-sterile) and covered with a covering soil layer of about 1 cm. The pots were then cultivated in a greenhouse (12-16 h of light, temperature day 20-22° C., night 15-18° C.) until the time of application. […]

[8] = tested on: HORVS (Hordeum vulgare, summer barley); assay: Greenhouse trial: pre-sowing application vs PE application (test method 6), crop, PE part; details: Hordeum vulgare (summer barley), in vivo
Experimental: as §1, §2, §4

POAAN (Poa annua) [9] = assay: Greenhouse trial: PE soil application vs incorporation into the soil (test methods 1, 3); details: g of AS/ha: (A) 90, (B) 1200, (C) 90, (D) 300
Experimental: as §1, §2, §3

STEME (Stellaria media) [10] = assay: as above; details: g of AS/ha: (A) 90, (B) 1200, (C) 90, (D) 300
Experimental: as §1, §2, §3

AVEFA (Avena fatua) [11] = assay: Greenhouse trial: different irrigation systems (test method 7); details: g of AS/ha: (A) 120, (B) 1200, (C) 90
Experimental: as §1, §2, §3

LOLPE (Lolium perenne) [12] = assay: as above; details: g of AS/ha: (A) 120, (B) 1200, (C) 90
Experimental: as §1, §2, §3

[13] = tested on: MATCH (Matricaria chamomilla); assay: as above; details: g of AS/ha: (A) 120, (B) 1200, (C) 90
Experimental: as §1, §2, §3

[14] = tested on: APESV (Apera Spica-venti); assay: Greenhouse trial: different sowing depths, PE application (test method 10); details: g of AS/ha: (A) 90, (B) 1200, (C) 90; for activity APESV 5 mm (visual scale 0-100%): sowing depth 5 mm; for activity APESV 20 mm (visual scale 0-100%): sowing depth 20 mm
Experimental: as §1, §2, §3

[15] = tested on: MATCH (Matricaria chamomilla); assay: as above; details: g of AS/ha: (A) 90, (B) 1200, (C) 90; for activity MATCH 5 mm (visual scale 0-100%): sowing depth 5 mm; for activity MATCH 20 mm (visual scale 0-100%): sowing depth 20 mm
Experimental: as §1, §2, §3

[16] = tested on: TRZAS (Triticum aestivum, summer wheat); assay: Greenhouse trial: pre-sowing application vs PE application (test method 6), crop, pre-sowing part; details: Triticum aestivum (summer wheat), in vivo
Experimental: as §1, §2, §4

POAAN (Poa annua) [17] = assay: Greenhouse trial: PO application (test method 2); details: g of AS/ha: (A) 120, (B) 1600, (C) 120
Experimental: as §1, §2, §3

STEME (Stellaria media) [18] = assay: Greenhouse trial: PO application (test method 2); details: g of AS/ha: (A) 120, (B) 1600, (C) 120
Experimental: as §1, §2, §3

[19] = tested on: APESV (Apera Spica-venti); assay: Greenhouse trial: PO application (test method 2); details: g of AS/ha: (A) 120, (B) 1600, (C) 120
Experimental: as §1, §2, §3

LOLPE (Lolium perenne) [20] = assay: Greenhouse trial: different soil types (test method 8); details: g of AS/ha: (A) 120, (B) 1200, (C) 90
Experimental: as §1, §2, §3

[21] = tested on: MATCH (Matricaria chamomilla); assay: as above; details: g of AS/ha: (A) 120, (B) 1200, (C) 90; for Difference of the soil types, MATCH: IU/EC73 soil vs IU soil
Experimental: as §1, §2, §3

[22] = PE application, g of AS/ha: (A) 90, (B) 1200, (C) 90
[23] = application 7 days prior to sowing, g AS/ha: (A) 90, (B) 1200, (C) 90

SMILES | activity STEME resistant (visual scale 0-100%) [1] | activity STEME sensitive (visual scale 0-100%) [1] | activity LOLSS resistant (visual scale 0-100%) [2] | activity LOLSS sensitive (visual scale 0-100%) [2] | activity MATCH resistant (visual scale 0-100%) [3] | activity MATCH sensitive (visual scale 0-100%) [3] | activity AVEFA (visual scale 0-100%) (AVEFA (Avena fatua) [4]; [22]) | activity AVEFA (visual scale 0-100%) (AVEFA (Avena fatua) [4]; [23]) | activity LOLPE (visual scale 0-100%) (LOLPE (Lolium perenne) [5]; [22]) | activity LOLPE (visual scale 0-100%) (LOLPE (Lolium perenne) [5]; [23]) | Difference Δ^D of the soil types, HORVS [6] | activity on crop HORVS IU soil (visual scale 0-100%) [6] | activity on crop HORVS IU/EC73 soil (visual scale 0-100%) [6] | activity on crop HORVS (visual scale 0-100%) [7] | activity on crop HORVS (visual scale 0-100%) [8] | activity POAAN (visual scale 0-100%) (POAAN (Poa annua) [9]; PE application) | activity STEME (visual scale 0-100%) (STEME (Stellaria media) [10]; PE application) | activity STEME (visual scale 0-100%) (STEME (Stellaria media) [10]; incorporation into the soil) | activity AVEFA (visual scale 0-100%) (AVEFA (Avena fatua) [11]; irrigation from above) | activity AVEFA (visual scale 0-100%) (AVEFA (Avena fatua) [11]; irrigation from below) | other results
CCCN(CCC)C(=O)SCc1ccccc1 [(B) prosulfocarb, S-(phenylmethyl) dipropylcarbamothioate] | 40% | 70% | 65% | 85% | 25% | 0% | 10% | 10% | 5% | 0% | Δ^D + 3% | 0% | 3% | 30% | 15% | 35% | 30% | 65% | 5% | 10% | activity LOLPE (visual scale 0-100%) (LOLPE (Lolium perenne) [12]; irrigation from above): 10%; activity LOLPE (visual scale 0-100%) (LOLPE (Lolium perenne) [12]; irrigation from below): 5%; activity MATCH (visual scale 0-100%) ([13]; irrigation from above): 0%; activity MATCH (visual scale 0-100%) ([13]; irrigation from below): 0%; activity APESV 5 mm (visual scale 0-100%) [14]: 50%; activity APESV 20 mm (visual scale 0-100%) [14]: 20%; activity MATCH 5 mm (visual scale 0-100%) [15]: 0%; activity MATCH 20 mm (visual scale 0-100%) [15]: 0%; activity on crop TRZAS (visual scale 0-100%) [16]: 20%; activity POAAN (visual scale 0-100%) (POAAN (Poa annua) [17]): 30%; activity STEME (visual scale 0-100%) (STEME (Stellaria media) [18]): 30%; activity APESV (visual scale 0-100%) [19]: 20%; activity LOLPE IU soil (visual scale 0-100%) (LOLPE (Lolium perenne) [20]): 33%; activity LOLPE IU/EC73 soil (visual scale 0-100%) (LOLPE (Lolium perenne) [20]): 0%; activity MATCH IU soil (visual scale 0-100%) [21]: 10%; Difference of the soil types, MATCH [21]: −10%; activity MATCH IU/EC73 soil (visual scale 0-100%) [21]: 0%
CC(C)N(C(=O)COc1nnc(C(F)(F)F)s1)c1ccc(F)cc1 [(A) flufenacet, N-(4-fluorophenyl)-N-(1-methylethyl)-2-[[5-(trifluoromethyl)-1,3,4-thiadiazol-2-yl]oxy]acetamide] | 0% | 0% | 10% | 85% | 30% | 30% | 63% | 70% | 75% | 80% | Δ^D − 10% | 10% | 0% | 40% | 80% | 70% | 0% | 20% | 85% | 50% | activity POAAN (visual scale 0-100%) (POAAN (Poa annua) [9]; incorporation into the soil): 100%; activity LOLPE (visual scale 0-100%) (LOLPE (Lolium perenne) [12]; irrigation from above): 80%; activity LOLPE (visual scale 0-100%) (LOLPE (Lolium perenne) [12]; irrigation from below): 78%; activity MATCH (visual scale 0-100%) ([13]; irrigation from above): 49%; activity MATCH (visual scale 0-100%) ([13]; irrigation from below): 35%; activity APESV 5 mm (visual scale 0-100%) [14]: 65%; activity APESV 20 mm (visual scale 0-100%) [14]: 70%; activity MATCH 5 mm (visual scale 0-100%) [15]: 30%; activity MATCH 20 mm (visual scale 0-100%) [15]: 30%; activity on crop TRZAS (visual scale 0-100%) [16]: 40%; activity POAAN (visual scale 0-100%) (POAAN (Poa annua) [17]): 60%; activity STEME (visual scale 0-100%) (STEME (Stellaria media) [18]): 30%; activity APESV (visual scale 0-100%) [19]: 60%; activity LOLPE IU soil (visual scale 0-100%) (LOLPE (Lolium perenne) [20]): 97%; activity LOLPE IU/EC73 soil (visual scale 0-100%) (LOLPE (Lolium perenne) [20]): 75%; activity MATCH IU soil (visual scale 0-100%) [21]: 80%; Difference of the soil types, MATCH [21]: −75%; activity MATCH IU/EC73 soil (visual scale 0-100%) [21]: 5%
